# Assay results reported in patent EP0309566B1, “STLV-III-RELATED POLYPEPTIDES, DIAGNOSTIC SYSTEMS AND ASSAY METHODS” (JOHNSON AND JOHNSON, priority 1987, dated 1994).
# Tests used:
# antibodies against HIV-2 = assay: ELISA with STLV-III polypeptides p80 and p81, alone and in combination; assay type: binding, human; details: two sera containing high titers of antibodies against HIV-2, diluted 1:10; 490nm
# Protocol: Preliminary studies using two sera containing high titers of antibodies against HIV-2 were performed by ELISA using each of p80 and p81 alone and in combination. One hundred microliters (ul) of 0.01M NaHCO₃, pH 9.6, containing 1 microgram (ug) of either p80 or p81 or a combination (admixture) of 1 ug of p80 and 1 ug of p81 were admixed into the wells of Immunolon II microtiter plates (Dynatech, Alexandria, VA). The plates were then maintained for about 16 hours at 4 degrees C to permit the polypeptides to adsorb onto (coat) the walls of the wells. After removing the polypeptide coating solution by shaking, 300 ul of PBS containing 1% bovine serum albumin (BSA), 5mM benzamidine, 10 kilounits Aprotinin, 10ug/ml Trypsin Inhibitor, 10mM EACA, 0.5mM PMSF, 2mM EDTA and 10% glycerol were admixed into each well to block excess protein binding sites. […]
# Two hundred ul of OPD substrate were then admixed into each well to form a developing-reaction admixture. After maintaining the developing-reaction admixture for 30 minutes at about 20 degrees C, 50 ul of 4N H₂SO₄ were admixed into each well to stop the developing-reaction, and the resulting solutions were assayed for absorbance at 490nm using a microtiter plate reader.
# 24 sera = assay: Comparison of peptide p80 based and peptide p81 based ELISA, 24 sera; assay type: binding
# Source text: The absorbance values obtained for each of 24 sera in a peptide p80 based ELISA were divided by those obtained in a peptide p81 based ELISA. The resulting absorbance value ratios are shown in ranked order in Table 14.
# antibodies to HIV-1 [1] = assay: Competition ELISA, formula (I) peptide as solid phase antigen (Example 4A); assay type: binding, human
# Protocol: (§1) • (1) coat ELISA plate with peptide - 1ug/50ul/well in 0.1M NaHCO₃, pH 9; • (2) let plates dry overnight uncovered at 37°C; then wash with PBS; • (3) block plates with 300ul/well of blocking buffer (5% NCS-PBS) for 2 hrs. at 37°C; • (4) shake out blocking buffer and drain well; • (5) add 50ul/well test antiserum (first antibody) for 30 to 120 minutes at 37°C. (If the antiserum is to be diluted, use T-wash.) Dilutions of 1:2 to 1:100 have been used; • (6) shake out test antisera and wash plate six times with PBS-Tween20; • (7) add 100ul/well of labeled specific binding agent in the form of a enzyme-labeled second antibody diluted 1:4000 with T-wash. Maintain 30 to 120 minutes at 37°C; • (8) shake out any unreacted second antibody and wash plate six times with PBS-Tween20; • (9) add 100ul/well OPD substrate (or 5ul ABTS solution) for 20 minutes at RT; • (10) add 50ul/well of 4N H₂SO₄ to stop OPD reaction (or 100ul/well of 1% SDS for ABTS reaction); • (11) read plate on an MR 500 Microplate ELISA plate reader. (490nm for OPD or 405 nm for ABTS).
# antibodies to HIV-1 [2] = assay: E8 peptide competition (blocking) assay: serum mixed with peptide (II), peptide (II) as solid phase antigen; assay type: binding, human; details: last seven samples of Table 7 (antibody positive sera)
# Protocol: Presented in Table 7 below are data relating to the assay of various patient sera. In addition to the usual assay with peptide (II) as described in Example 4-Procedure A, each serum was assayed against peptide (II) after mixing the serum sample with an effective blocking amount of the peptide (II). Also included in the Table are the results of assaying each sample with commercially available kits.
# Furthermore, even samples incorrectly identified as positive by the E8 assay are correctly identified as negative by the E8 peptide competition assay. […] The last seven samples assayed as shown in Table 7 are positive for antibody by both the E8 assay and commercially available assays (with the exception of two false negatives using the Abbott kit) and by the more tedious and time consuming Western blot assay.
# HIV-1 antibodies [3] = assay: ELISA of serum panels: E8 assay (peptide (II) as solid phase antigen, Procedure #1) compared with commercial viral lysate kits; assay type: binding, human; set-up: key: +: antibody-positive; antibody-negative; details: E8 absorbance cutoff 0.104
# Protocol: as §1, with “ABTS). […]” for “ABTS).”
# (§2) The ELISA kits described in Example 4A made with peptide (II) were evaluated against a panel of sera comprising sera from normal subjects, patients with disorders or diseases unrelated to AIDS, known AIDS patients, known ARC patients, and patients whose diagnosis is unknown but who are antibody-positive for […] antibodies by commercial tests or by Western blot assay. […]
# HIV-1 antibodies [4] = assay: as above; assay type: binding, human; set-up: key: (+)=False Positives; details: 6 samples; NPC/NON-AIDS
# Protocol: as §1, with “(490nm for OPD or 405 nm for ABTS).” left out
# as §2
# HIV-1 antibodies [5] = assay: as above; assay type: binding, human; details: 200 normal sera; S.D. 0.017
# Protocol: as §1, with “(490nm for OPD or 405 nm for ABTS).” left out
# as §2
# HIV-1 antibodies [6] = assay: as above; assay type: binding, human; set-up: key: (-) = False Negatives
# Protocol: as §1, with “ABTS). […]” for “ABTS).”
# as §2
# antibodies to HIV-1 [7] = assay: ELISA with peptides (III) and (IV), AIDS/ARC patient sera (Procedure 1); assay type: binding, human
# Protocol: as §1
# Additional AIDS/ARC patient sera were assayed with ELISA assays employing the two highly reactive peptides of formulas (III) and (IV) (Example IV-Procedure 1).
# antibodies to HIV-1 [8] = assay: Competition ELISA, admixed formula (III) and (IV) peptides as solid phase antigen (Example 4A); assay type: binding, human
# Protocol: as §1
# Further evidence that more than one epitope is present in formula (III) and (IV) peptides can be deduced from absorbance values obtained from competition studies, the results of an example of which are shown in Table 11. In this study, admixed formula (III) and (IV) peptides were applied to a microtiter plate as the immobilized, solid phase antigen and an ELISA assay (Example 4A) was performed under five different conditions: without competition, or competition with excess formula (III) peptide, formula (IV) peptide, an admixture of both peptides [(III)+(IV)], or with a heterologous peptide. The competition was performed by adding the appropriate peptide(s) to the diluted serum just before adding the serum sample to the microtiter well.
substance,measurement,setting,value
AWCAFRQVCHTTVPWPNAS [p81],absorbance values,antibodies against HIV-2,about 0.4
same,absorbance value,24 sera; Serum No. 3541,0.025
same,absorbance value,24 sera; Serum No. 3616,0.047
same,absorbance value,24 sera; Serum No. 3743,0.040
same,absorbance value,24 sera; Serum No. 3923,0.067
same,absorbance value,24 sera; Serum No. 3942,0.051
same,absorbance value,24 sera; Serum No. 5160,0.236
same,absorbance value,24 sera; Serum No. 5182,0.102
same,absorbance value,24 sera; Serum No. 5727,0.563
same,absorbance value,24 sera; Serum No. 5740,0.043
same,absorbance value,24 sera; Serum No. 6598,0.205
same,absorbance value,24 sera; Serum No. 6599,0.232
same,absorbance value,24 sera; Serum No. 6600,0.306
same,absorbance value,24 sera; Serum No. 6601,0.138
same,absorbance value,24 sera; Serum No. 6602,0.001
same,absorbance value,24 sera; Serum No. 6603,0.421
same,absorbance value,24 sera; Serum No. 6604,0.400
same,absorbance value,24 sera; Serum No. 6631,0.285
same,absorbance value,24 sera; Serum No. 6650,0.034
same,absorbance value,24 sera; Serum No. 6661,0.160
same,absorbance value,24 sera; Serum No. 6665,0.053
same,absorbance value,24 sera; Serum No. 6674,0.258
same,absorbance value,24 sera; Serum No. 6683,0.489
same,absorbance value,24 sera; Serum No. 6698,0.022
same,absorbance value,24 sera; Serum No. 6877,0.008
CSGKLIC [(I)],absorbance with competing peptide,"antibodies to HIV-1 [1]; sample 013, unblocked 1.177",0.038
same,absorbance with competing peptide,"antibodies to HIV-1 [1]; sample 014, unblocked 0.383",0.050
"IWGCSGKLICTTAVP [peptide (II), solid phase antigen of the ""E8"" assay]",reactivity of sera with peptide (II) as solid phase antigen after mixing each serum with peptide (II),antibodies to HIV-1 [2],effectively blocked
same,Assay result,"HIV-1 antibodies [3]; 1 sample, Normal, Sample ID 749",-
same,Assay result,"HIV-1 antibodies [3]; 1 sample, Normal, Sample ID 2846",+
same,Assay result,"HIV-1 antibodies [3]; 198 samples, Diagnosis Normal",-
same,Assay result,HIV-1 antibodies [4],(+)
same,Mean Absorbance of Normals,HIV-1 antibodies [5],0.016
same,Assay result,"HIV-1 antibodies [6]; 1 sample, AIDS, Sample I.D. 653",(-)
same,Assay result,"HIV-1 antibodies [6]; 2 samples, AIDS, Sample I.D. 533,3621",(-)
same,Assay result,"HIV-1 antibodies [6]; 2 samples, ARC, Sample I.D. 512,529",(-)
IWGCSGKLICTTAVPWNAS [peptide (III)],competition with formula (I) peptide on the plate,antibodies to HIV-1 [1]; result in words,competed very effectively
same,absorbance with competing peptide,"antibodies to HIV-1 [1]; sample 013, unblocked 1.177",0.046
same,absorbance with competing peptide,"antibodies to HIV-1 [1]; sample 014, unblocked 0.383",0.067
same,absorbance values,antibodies to HIV-1 [7]; serum sample 0509 (group B),0.403
same,absorbance values,antibodies to HIV-1 [7]; serum sample 0649 (group A),1.756
same,absorbance values,antibodies to HIV-1 [7]; serum sample 0653 (group B),0.111
same,absorbance values,antibodies to HIV-1 [7]; serum sample 0662 (group B),0.301
same,absorbance values,antibodies to HIV-1 [7]; serum sample 3362 (group A),0.503
same,absorbance values,antibodies to HIV-1 [7]; serum sample 3411 (group C),>2.00
same,absorbance values,antibodies to HIV-1 [7]; serum sample 3412 (group A),>2.00
same,absorbance values,antibodies to HIV-1 [7]; serum sample 3413 (group C),>2.00
same,absorbance values,antibodies to HIV-1 [7]; serum sample 3414 (group C),1.453
same,absorbance values,antibodies to HIV-1 [7]; serum sample 3416 (group C),1.914
same,absorbance values,antibodies to HIV-1 [7]; serum sample 3456 (group C),1.670
same,absorbance values,antibodies to HIV-1 [7]; serum sample 3555 (group B),0.428
same,absorbance values,antibodies to HIV-1 [7]; serum sample 3575 (group B),0.350
same,absorbance values,antibodies to HIV-1 [7]; serum sample 3666 (group C),>2.00
same,absorbance values,antibodies to HIV-1 [7]; serum sample 3693 (group A),0.559
same,absorbance values,antibodies to HIV-1 [7]; serum sample 3722 (group A),0.620
same,absorbance values,antibodies to HIV-1 [7]; serum sample 3744 (group B),0.311
same,absorbance values,antibodies to HIV-1 [7]; serum sample 3790 (group B),0.224
same,absorbance with competing peptide,"antibodies to HIV-1 [8]; sample 3412, unblocked 1.450",0.113
same,absorbance with competing peptide,"antibodies to HIV-1 [8]; sample 3413, unblocked >2.00",0.381
same,absorbance with competing peptide,"antibodies to HIV-1 [8]; sample 3416, unblocked >2.00",1.811
same,absorbance with competing peptide,"antibodies to HIV-1 [8]; sample 3544, unblocked 1.810",0.876
same,absorbance with competing peptide,"antibodies to HIV-1 [8]; sample 3575, unblocked 1.267",0.982
same,absorbance with competing peptide,"antibodies to HIV-1 [8]; sample 3693, unblocked 0.340",0.103
same,absorbance with competing peptide,"antibodies to HIV-1 [8]; sample 3790, unblocked 1.558",1.320
